Measured values published in patent US10053463B2 (Janssen Pharmaceutica NV, priority 2013, dated 2018).

Assays:
[1] = molecular target: T1, P2X7 (Homo sapiens (Human), UniProt Q99572); experiment: P2X7 antagonism in human peripheral blood mononuclear cells (PBMCs), IL-1β release; type: cell-based; settings: 10 μM compound; for remaining activity at 10 µM: P2X7, Table 3 (additional runs), read-out: PBMC 10 μM (% control)
Method in brief: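 Ficoll-isolated human PBMCs primed with LPS (30 ng/ml) for 1 h, treated with compound for 30 min, then stimulated with 0.5 mM Bz-ATP for 1.5 h. Supernatant IL-1β measured by ELISA as % of LPS+Bz-ATP minus LPS-only release; IC50 from concentration–response of triplicate means.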

[2] = molecular target: T1, P2X7; experiment: Radioligand binding, human P2X7-1321N1 cell membranes, tracer tritiated A-804598; settings: Table 3 (additional runs)
Method: P2X7 Antagonism in Recombinant Human P2X7 Cells or Recombinant Rat P2X7 Cells: (a) Ca^2+ Flux and (b) Radioligand Binding
(b) Radioligand Binding: human or rat P2X7-1321N1 cells were collected and frozen @−80° C. On the day of the experiment, cell membrane preparations were made according to standard published methods. The total assay volume was 100 μl:10 μl compound (10×)+(b) 40 μl tracer (2.5×)+50 μl membrane (2×). The tracer used for the assay was tritiated A-804598. The compound can be prepared as described in the literature. (Donnelly-Roberts, D. Neuropharmacology 2008, 56 (1), 223-229.) Compounds, tracer and membranes were incubated for 1 hour @ 4° C. The assay was terminated by filtration (GF/B filters pre-soaked with 0.3% PEI) and washed with washing buffer (Tris-HCl 50 mM). The IC50 generated in the binding assay was corrected for tracer concentration and affinity of the tracer to derive at the affinity (K) of the test compounds. […] Data are analyzed and graphed on Graphpad Prism 5. For analysis, each concentration point is averaged from triplicate values and the averaged values are plotted on Graphpad Prism.

T1 sequence (Q99572 whole entry): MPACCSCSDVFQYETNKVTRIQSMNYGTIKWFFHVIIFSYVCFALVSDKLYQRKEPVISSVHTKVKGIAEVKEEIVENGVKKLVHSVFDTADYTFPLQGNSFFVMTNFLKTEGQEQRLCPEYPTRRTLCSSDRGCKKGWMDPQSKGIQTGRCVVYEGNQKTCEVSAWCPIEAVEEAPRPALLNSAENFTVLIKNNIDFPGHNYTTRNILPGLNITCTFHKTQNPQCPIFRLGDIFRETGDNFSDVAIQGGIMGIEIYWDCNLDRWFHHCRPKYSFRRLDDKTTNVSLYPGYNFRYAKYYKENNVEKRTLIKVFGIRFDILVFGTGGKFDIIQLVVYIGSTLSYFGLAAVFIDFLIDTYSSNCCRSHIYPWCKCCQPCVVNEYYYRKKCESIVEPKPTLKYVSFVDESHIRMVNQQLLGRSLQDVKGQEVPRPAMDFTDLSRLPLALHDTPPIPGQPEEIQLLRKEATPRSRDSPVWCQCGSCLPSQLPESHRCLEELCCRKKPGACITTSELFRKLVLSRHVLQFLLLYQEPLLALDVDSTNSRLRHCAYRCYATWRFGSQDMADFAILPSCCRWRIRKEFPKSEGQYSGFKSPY

Compound | remaining activity at 10 µM [1] [%] | PBMC 10 μM (% control) ([1]; Table 2, IL-1β release, LPS + 0.5 mM Bz-ATP) | Ki [2] [nM]
CC(c1cccc(C(F)(F)F)c1Cl)N1C(=O)c2nnc(-c3cnccn3)n2C[C@@H]1C (stereo partly shown) [Example 93] | 4.5 | 4.5 | 
C[C@H]1Cn2c(-c3cnccn3)nnc2-c2nnc(-c3cccc(C(F)(F)F)c3Cl)n21 [Example 99, (5S)-3-[2-Chloro-3-(trifluoromethyl)phenyl]-5-methyl-8-pyrazin-2-yl-5,6-dihydrobis[1,2,4]triazolo[4,3-a:3′,4′-c]pyrazine] | 34.3 |  | 7.9
C[C@H]1Cn2c(-c3cnccn3)nnc2-c2nnc(-c3cccc(Cl)c3Cl)n21 [Example 100, (5S)-3-(2,3-Dichlorophenyl)-5-methyl-8-pyrazin-2-yl-5,6-dihydrobis[1,2,4]triazolo[4,3-a:3′,4′-c]pyrazine] | 17.2 |  | 20
C[C@H]1Cn2c(-c3ccc(F)cc3)nnc2-c2nnc(-c3cccc(C(F)(F)F)c3Cl)n21 [Example 101, (5S)-3-[2-Chloro-3-(trifluoromethyl)phenyl]-8-(4-fluorophenyl)-5-methyl-5,6-dihydrobis[1,2,4]triazolo[4,3-a:3′,4′-c]pyrazine] | 1.2 |  | 39.8
C[C@H]1Cn2c(-c3ccc(F)cn3)nnc2-c2nnc(-c3cccc(C(F)(F)F)c3Cl)n21 [Example 102, (5S)-3-[2-Chloro-3-(trifluoromethyl)phenyl]-8-(5-fluoropyridin-2-yl)-5-methyl-5,6-dihydrobis[1,2,4]triazolo[4,3-a:3′,4′-c]pyrazine] | 1.4 |  | 
C[C@H]1Cn2c(-c3cc[nH]n3)nnc2-c2nnc(-c3cccc(C(F)(F)F)c3Cl)n21 [Example 103, (5S)-3-[2-Chloro-3-(trifluoromethyl)phenyl]-5-methyl-8-(1H-pyrazol-3-yl)-5,6-dihydrobis[1,2,4]triazolo[4,3-a:3′,4′-c]pyrazine] | 3.3 |  | 22.4
C[C@H]1Cn2c(-c3cocn3)nnc2-c2nnc(-c3cccc(C(F)(F)F)c3Cl)n21 [Example 104, (5S)-3-[2-Chloro-3-(trifluoromethyl)phenyl]-5-methyl-8-(1,3-oxazol-4-yl)-5,6-dihydrobis[1,2,4]triazolo[4,3-a:3′,4′-c]pyrazine] | 4.3 |  | 
C[C@H]1Cn2c(-c3ncccn3)nnc2-c2nnc(-c3cccc(C(F)(F)F)c3Cl)n21 [Example 105, (5S)-3-[2-Chloro-3-(trifluoromethyl)phenyl]-5-methyl-8-pyrimidin-2-yl-5,6-dihydrobis[1,2,4]triazolo[4,3-a:3′,4′-c]pyrazine] | 0.2 |  | 4
C[C@H]1Cn2c(-c3nccs3)nnc2-c2nnc(-c3cccc(C(F)(F)F)c3Cl)n21 [Example 106, (5S)-3-[2-Chloro-3-(trifluoromethyl)phenyl]-5-methyl-8-(1,3-thiazol-2-yl)-5,6-dihydrobis[1,2,4]triazolo[4,3-a:3′,4′-c]pyrazine] | 1.9 |  | 12.6
C[C@H]1Cn2cnnc2-c2nnc(-c3cccc(C(F)(F)F)c3Cl)n21 [Example 107, (5S)-3-[2-Chloro-3-(trifluoromethyl)phenyl]-5-methyl-5,6-dihydrobis[1,2,4]triazolo[4,3-a:3′,4′-c]pyrazine] | 40.2 |  | 
C[C@H]1Cn2c(-c3cccnn3)nnc2-c2nnc(-c3cccc(C(F)(F)F)c3Cl)n21 [Example 108, (5S)-3-[2-Chloro-3-(trifluoromethyl)phenyl]-5-methyl-8-pyridazin-3-yl-5,6-dihydrobis[1,2,4]triazolo[4,3-a:3′,4′-c]pyrazine] | -0.5 |  | 
Cc1ncsc1-c1nnc2n1C[C@H](C)n1c(-c3cccc(C(F)(F)F)c3Cl)nnc1-2 [Example 109, (5S)-3-[2-Chloro-3-(trifluoromethyl)phenyl]-5-methyl-8-(4-methyl-1,3-thiazol-5-yl)-5,6-dihydrobis[1,2,4]triazolo[4,3-a:3′,4′-c]pyrazine] | -1.2 |  | 63.1
Cc1cnc(-c2nnc3n2C[C@H](C)n2c(-c4cccc(C(F)(F)F)c4Cl)nnc2-3)cn1 [Example 110, (5S)-3-[2-Chloro-3-(trifluoromethyl)phenyl]-5-methyl-8-(5-methylpyrazin-2-yl)-5,6-dihydrobis[1,2,4]triazolo[4,3-a:3′,4′-c]pyrazine] | -1.4 |  | 63.1
C[C@H]1Cn2c(-c3ccncn3)nnc2-c2nnc(-c3cccc(C(F)(F)F)c3Cl)n21 [Example 111, (5S)-3-[2-Chloro-3-(trifluoromethyl)phenyl]-5-methyl-8-pyrimidin-4-yl-5,6-dihydrobis[1,2,4]triazolo[4,3-a:3′,4′-c]pyrazine] | 6.1 |  | 10
C[C@H]1Cn2c(-c3cn[nH]c3)nnc2-c2nnc(-c3cccc(C(F)(F)F)c3Cl)n21 [Example 112, (5S)-3-[2-Chloro-3-(trifluoromethyl)phenyl]-5-methyl-8-(1H-pyrazol-4-yl)-5,6-dihydrobis[1,2,4]triazolo[4,3-a:3′,4′-c]pyrazine] | 6.7 |  | 126
COc1ccnc(-c2nnc3n2C[C@H](C)n2c(-c4cccc(C(F)(F)F)c4Cl)nnc2-3)c1 [Example 113, (5S)-3-[2-Chloro-3-(trifluoromethyl)phenyl]-8-(4-methoxypyridin-2-yl)-5-methyl-5,6-dihydrobis[1,2,4]triazolo[4,3-a:3′,4′-c]pyrazine] | 5.8 |  | 8.7
C[C@H]1Cn2c(-c3cnn(C)c3)nnc2-c2nnc(-c3cccc(C(F)(F)F)c3Cl)n21 [Example 114, (5S)-3-[2-Chloro-3-(trifluoromethyl)phenyl]-5-methyl-8-(1-methyl-1H-pyrazol-4-yl)-5,6-dihydrobis[1,2,4]triazolo[4,3-a:3′,4′-c]pyrazine] | 4.4 |  | 
C[C@H]1Cn2c(-c3cnco3)nnc2-c2nnc(-c3cccc(C(F)(F)F)c3Cl)n21 [Example 115, (5S)-3-[2-Chloro-3-(trifluoromethyl)phenyl]-5-methyl-8-(1,3-oxazol-5-yl)-5,6-dihydrobis[1,2,4]triazolo[4,3-a:3′,4′-c]pyrazine] | 2.1 |  | 43.7
CCc1nnc2n1C[C@H](C)n1c(-c3cccc(C(F)(F)F)c3Cl)nnc1-2 [Example 116, (S)-3-[2-chloro-3-(trifluoromethyl)phenyl]-8-ethyl-5-methyl-5,6-dihydrobis[1,2,4]triazolo[4,3-a:3′,4′-c]pyrazine] | 6.2 |  | 
C[C@H]1Cn2c(-c3cccc(C(F)(F)F)n3)nnc2-c2nnc(-c3cccc(C(F)(F)F)c3Cl)n21 [Example 117, (S)-3-[2-chloro-3-(trifluoromethyl)phenyl]-5-methyl-8-(6-(trifluoromethyl)pyridine-2-yl)-5,6-dihydrobis[1,2,4]triazolo[4,3-a:3′,4′-c]pyrazine] | 25.9 |  | 
C[C@H]1Cn2c(-c3nccc(C(F)(F)F)n3)nnc2-c2nnc(-c3cccc(C(F)(F)F)c3Cl)n21 [Example 118, (S)-3-[2-chloro-3-(trifluoromethyl)phenyl]-5-methyl-8-(4-(trifluoromethyl)pyrimidin-2-yl)-5,6-dihydrobis[1,2,4]triazolo[4,3-a:3′,4′-c]pyrazine] | 9.9 |  | 63.1
C[C@H]1Cn2c(-c3cc(C(F)(F)F)ccn3)nnc2-c2nnc(-c3cccc(C(F)(F)F)c3Cl)n21 [Example 119, (S)-3-[2-chloro-3-(trifluoromethyl)phenyl]-5-methyl-8-(4-(trifluoromethyl)pyridin-2-yl)-5,6-dihydrobis[1,2,4]triazolo[4,3-a:3′,4′-c]pyrazine] | 15 |  | 14.1
C[C@H]1Cn2c(-c3ccc(Cl)cn3)nnc2-c2nnc(-c3cccc(C(F)(F)F)c3Cl)n21 [Example 120, (S)-3-[2-chloro-3-(trifluoromethyl)phenyl]-5-methyl-8-(5-chloropyridin-2-yl)-5,6-dihydrobis[1,2,4]triazolo[4,3-a:3′,4′-c]pyrazine] | 7 |  | 25.1
Cc1ccc(-c2nnc3n2C[C@H](C)n2c(-c4cccc(C(F)(F)F)c4Cl)nnc2-3)s1 [Example 121, (S)-3-[2-chloro-3-(trifluoromethyl)phenyl]-5-methyl-8-(5-methylthiophen-2-yl)-5,6-dihydrobis[1,2,4]triazolo[4,3-a:3′,4′-c]pyrazine] | 9.3 |  | 15.8
C[C@H]1Cn2c(-c3cccnc3)nnc2-c2nnc(-c3cccc(C(F)(F)F)c3Cl)n21 [Example 122, (S)-3-[2-chloro-3-(trifluoromethyl)phenyl]-5-methyl-8-(pyridin-3-yl)-5,6-dihydrobis[1,2,4]triazolo[4,3-a:3′,4′-c]pyrazine] | 9.5 |  | 
Cc1cncc(-c2nnc3n2C[C@H](C)n2c(-c4cccc(C(F)(F)F)c4Cl)nnc2-3)c1 [Example 123, (S)-3-(2-chloro-3-(trifluoromethyl)phenyl)-5-methyl-8-(5-methylpyridin-3-yl)-5,6-dihydrobis([1,2,4]triazolo)[4,3-a:3′,4′-c]pyrazine] | 2.4 |  | 
